# Data taken from patent US12697316B2, “Combination therapy with acetyl-leucine and miglustat” (INTRABIO LTD., priority 2019, dated 2026).
# Key:
# NPC patients = test: Observational clinical study of adult NPC patients treated with ADLL; assay type: in vivo, human
# Text: Progression of a LSD or one or more symptoms of a LSD over time or through treatment can be monitored, for example, using one or more known tests at two or more time points and comparing the results. Disease progression and/or severity can be assessed, for example, using the Scale for the Assessment and Rating of Ataxia (SARA), Spinocerebellar Ataxia Functional Index (SCAFI), the International Cooperative Ataxia Rating Scale (ICARS), the brief ataxia rating scale (BARS), the modified Disability Rating Scale (mDRS), EuroQol 5Q-5D-5L (EQ-5D-5L), the visual analogue scale (VAS), Wechsler Adult Intelligence Scale-Revised (WAIS-R), Wechsler Intelligence Scale for Children-IV (WISC-IV), Montreal Cognitive Assessment (MoCA) or other suitable tests. For certain LSDs, such as NPC, particular scores have been developed and validated over the last decades, for instance the clinical severity score (CSS) and annual severity increment score (ASIS) (see Yanjanin et al., “Linear Clinical Progression, Independent of Age of Onset, in Niemann—Pick Disease, Type C,” Am J Med Genet Part B 153B:132-140) and the modified 6-Domain NP-C disability Scale (mDRS score). For example, an NPC patient's severity can be quantified by assigning a CSS, which assesses various parameters of the disease (ambulation, seizures, eye movement, etc.) and gives each parameter a score out of 5. A higher score equals a greater severity. The ASIS quantifies the annual rate of change in the CSS, calculated by dividing the CSS by the patient's age. In this regard, certain scores in these tests are characteristic of symptomatic LSD patients and evidence disease progression and/or severity.
# Demographics and statistical analysis of a clinical observational study of adult NPC patients treated with ADLL: The cohort comprised 3 females and 10 males. Consent from all participants was obtained. Twelve of the NPC patients were on miglustat therapy (minimum exposure 2.65, 1t^st quartile 3.44, median 4.92, mean 4.87, 3rd quartile 5.80 and maximum 7.98 years). The thirteen NPC1 patients participated in an observational study treated with 5 g/day acetyl-DL-leucine (Tanganil™). Three patients had four prospective clinical severity score measurements and ten patients had five measurements taken during this observational study (NIH, CSS). Retrospective data were used to calculate rates of disease progression prior to recruitment to this study. The mean age at the start of acetyl-DL-leucine (Tanganil™) treatment was 26.59 years. The minimum age was 15.44, 1s^t quartile 20.97, median 26.98 and third quartile 30.79 with maximum age 37.37 years. The time in the observational treatment study was a […], 1st quartile 0.81, median 1, mean 0.95, third quartile 1.13 and maximum 1.21 years.
# Sandhoff (Hexb^−/−) mice = test: Bar crossing test in Sandhoff (Hexb−/−) mice; assay type: in vivo, mouse; details: 12 and 13 weeks
# Experimental: BALBc/NPC ^h and Sandhoff mice were bred as heterozygotes to generate affected mice (Npc1^−/−, Hexb^−/−) and controls (Npc^+/+, Hexb^+/+). The mice were housed under non-sterile conditions, with food and water available ad libitum. All experiments were conducted using protocols approved by the UK Home Office Animal Scientific Procedures Act, 1986.
# ADLL and enantiomers (ADLL: Molekula #73891210, ALL: Sigma Aldrich #441511, ADL: Sigma #A0876) were administered as dry admix in powdered mouse diet (PicoLab Rodent Diet 20/5053, LabDiet) at a dose of 0.1 g/kg/day for in vivo studies. Treatment groups for in vivo study consisted of at least 5 mice per group. […]
# The weight and activity of each mouse was recorded weekly until reaching the humane endpoint (defined as a loss of 1 g body weight within 24 h). Gait analysis was performed using CatWalk 10.5 system (Noldus) according to the manufacturer's instructions and five runs were recorded per animal at each time point. […] Motor function was measured using an accelerating NG Rota Rod for mice (Ugo Basile) starting from 1 rpm to 10 rpm, accelerating every 30 seconds by one rpm. […] Latency to cross or fall from the bar was scored, with 120 sec, maximum, to termination of each trial. […]
# [1] = number of the 13 treated NPC patients, neurological subdomain
smiles,measurement,setting,value
"CC(=O)NC(CC(C)C)C(=O)O (racemic) [ADLL, N-acetyl-DL-leucine]",mean change in Annual Severity Increment Scores (ASIS),NPC patients; 13 NPC patients,−9.1 %/year
same,average slope of disease progression (total clinical severity score) following initiation of treatment,"NPC patients; 13 adult NPC patients, 5 g/day, 12 also on miglustat, average slope before treatment 1.8",−1.78 severity units/year
same,Ambulation: Deteriorated,NPC patients; [1],1
same,Ambulation: Improved,NPC patients; [1],8
same,Ambulation: Stable,NPC patients; [1],4
same,Cognition: Deteriorated,NPC patients; [1],1
same,Cognition: Improved,NPC patients; [1],6
same,Cognition: Stable,NPC patients; [1],6
same,Eye movement: Deteriorated,NPC patients; [1],1
same,Eye movement: Improved,NPC patients; [1],8
same,Eye movement: Stable,NPC patients; [1],4
same,Fine motor skills: Deteriorated,NPC patients; [1],2
same,Fine motor skills: Improved,NPC patients; [1],8
same,Fine motor skills: Stable,NPC patients; [1],3
same,Memory: Deteriorated,NPC patients; [1],1
same,Memory: Improved,NPC patients; [1],10
same,Memory: Stable,NPC patients; [1],2
same,Speech: Deteriorated,NPC patients; [1],3
same,Speech: Improved,NPC patients; [1],3
same,Speech: Stable,NPC patients; [1],7
same,Swallow: Deteriorated,NPC patients; [1],1
same,Swallow: Improved,NPC patients; [1],10
same,Swallow: Stable,NPC patients; [1],2
same,patients with negative slopes following initiation of treatment,NPC patients; of 13 NPC patients,10
same,patients with no slope following initiation of treatment,NPC patients; of 13 NPC patients,3
same,Bar-crossing test performance,Sandhoff (Hexb^−/−) mice,significantly improved
